{"source": "patent US20060084704A1", "about": "“Methods and compositions for enhancing degradation of nuclear receptor transcription factors and uses thereof” (priority 2004, published 2006)", "type_in_all_cases": "cell-based", "conditions_in_all_cases": "1 or 2 micromolar, 24 hours, presence or absence of DHT", "key": {"ER beta": {"target": "T1, ER beta (Homo sapiens, UniProt Q92731)", "T1 construct": "endogenous in cells; host or cells: LNCaP", "experiment": "Western blot of LNCaP cell lysates, ER beta", "protocol": "(§1) Human prostate cancer LNCaP cells and T47D cells were plated at a density of 7×10^5 cells per 60 millimeter tissue culture dish in […] (RPMI) medium containing 10% FBS. The medium was changed to RPMI or DME medium containing 10% charcoal-stripped serum 24 hours later to deplete cellular androgens or estrogens. After another 24 hours, treatment with the test compounds began. The test dose of JC15 was 1 or 2 micromolar and the test does of JC9 was 1, 5 and 10 micromolar. LNCap cells also received dihydrotestosterone (DHT) (3 nanomolar). Control cells received a corresponding amount of the vehicle, dimethylsulfoxide (DMSO) (<0.04%) for an equivalent exposure time. Cells were incubated with JC15 for 24 or 48 hours, and were lysed in 250 microliters of 1×SDS/PAGE loading buffer. Approximately 40 micrograms of total cellular protein was loaded in each lane of a pre-cast gel (NuPAGE, Invitrogen). Protein separation and transfer were performed following the manufacturer's instructions.\n(§2) For the prostate cell lysates, androgen receptor (AR) protein was visualized by incubating the resultant membranes with an anti-AR antibody (BD-PharMingen), followed by chemiluminescence detection (ECL Plus, Amersham). […] The resultant protein signals were quantified using densitometry and NIH ImageJ software."}, "progesterone receptor": {"target": "T2, progesterone receptor (Homo sapiens, UniProt P06401)", "T2 construct": "endogenous in cells; host or cells: LNCaP", "T2 sequence (P06401 1-933)": "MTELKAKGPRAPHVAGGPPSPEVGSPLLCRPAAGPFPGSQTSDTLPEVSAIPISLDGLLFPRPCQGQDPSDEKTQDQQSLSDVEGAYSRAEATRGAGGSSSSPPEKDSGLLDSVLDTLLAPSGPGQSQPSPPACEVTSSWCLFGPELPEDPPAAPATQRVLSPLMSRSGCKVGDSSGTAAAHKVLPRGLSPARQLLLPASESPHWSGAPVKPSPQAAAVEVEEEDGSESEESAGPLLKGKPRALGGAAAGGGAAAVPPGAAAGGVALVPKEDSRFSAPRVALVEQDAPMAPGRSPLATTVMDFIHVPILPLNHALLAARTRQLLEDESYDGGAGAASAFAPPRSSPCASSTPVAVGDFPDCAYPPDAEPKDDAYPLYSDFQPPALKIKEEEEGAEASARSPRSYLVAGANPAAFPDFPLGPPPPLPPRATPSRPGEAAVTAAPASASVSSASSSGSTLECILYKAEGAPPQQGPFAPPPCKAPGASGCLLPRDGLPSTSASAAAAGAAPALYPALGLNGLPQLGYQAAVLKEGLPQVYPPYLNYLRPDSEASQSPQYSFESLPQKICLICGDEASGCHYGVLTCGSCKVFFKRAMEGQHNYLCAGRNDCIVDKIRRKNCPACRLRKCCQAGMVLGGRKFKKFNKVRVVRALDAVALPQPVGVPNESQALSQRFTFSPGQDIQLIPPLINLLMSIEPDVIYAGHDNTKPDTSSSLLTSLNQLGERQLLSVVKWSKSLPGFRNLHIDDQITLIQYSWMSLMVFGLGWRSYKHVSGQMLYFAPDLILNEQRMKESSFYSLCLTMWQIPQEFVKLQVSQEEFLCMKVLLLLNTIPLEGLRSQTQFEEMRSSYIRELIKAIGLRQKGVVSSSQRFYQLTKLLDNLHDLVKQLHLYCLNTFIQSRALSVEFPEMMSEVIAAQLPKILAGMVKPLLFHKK", "experiment": "Western blot of LNCaP cell lysates, progesterone receptor"}, "PPAR gamma": {"target": "T3, PPAR gamma (Homo sapiens, UniProt P37231)", "T3 construct": "endogenous in cells; host or cells: LNCaP", "T3 sequence (P37231 1-505)": "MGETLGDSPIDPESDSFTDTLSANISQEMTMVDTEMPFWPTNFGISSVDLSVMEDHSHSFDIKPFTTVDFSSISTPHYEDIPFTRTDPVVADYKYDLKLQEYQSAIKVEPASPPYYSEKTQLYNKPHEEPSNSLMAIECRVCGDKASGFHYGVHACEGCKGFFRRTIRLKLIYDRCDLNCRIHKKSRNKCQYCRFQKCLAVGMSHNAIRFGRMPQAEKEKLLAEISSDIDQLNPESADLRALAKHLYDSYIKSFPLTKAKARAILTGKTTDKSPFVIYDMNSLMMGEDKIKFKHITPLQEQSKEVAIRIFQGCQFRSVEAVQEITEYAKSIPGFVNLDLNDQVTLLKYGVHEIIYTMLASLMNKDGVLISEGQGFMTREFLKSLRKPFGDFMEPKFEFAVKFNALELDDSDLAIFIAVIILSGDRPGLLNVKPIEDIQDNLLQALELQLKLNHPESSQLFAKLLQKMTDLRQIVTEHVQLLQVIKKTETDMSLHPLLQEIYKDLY", "experiment": "Western blot of LNCaP cell lysates, PPAR gamma", "protocol": "as §1, §2"}, "PPAR beta": {"target": "T4, PPAR beta (Homo sapiens, UniProt Q03181)", "T4 construct": "endogenous in cells; host or cells: LNCaP", "T4 sequence (Q03181 1-441)": "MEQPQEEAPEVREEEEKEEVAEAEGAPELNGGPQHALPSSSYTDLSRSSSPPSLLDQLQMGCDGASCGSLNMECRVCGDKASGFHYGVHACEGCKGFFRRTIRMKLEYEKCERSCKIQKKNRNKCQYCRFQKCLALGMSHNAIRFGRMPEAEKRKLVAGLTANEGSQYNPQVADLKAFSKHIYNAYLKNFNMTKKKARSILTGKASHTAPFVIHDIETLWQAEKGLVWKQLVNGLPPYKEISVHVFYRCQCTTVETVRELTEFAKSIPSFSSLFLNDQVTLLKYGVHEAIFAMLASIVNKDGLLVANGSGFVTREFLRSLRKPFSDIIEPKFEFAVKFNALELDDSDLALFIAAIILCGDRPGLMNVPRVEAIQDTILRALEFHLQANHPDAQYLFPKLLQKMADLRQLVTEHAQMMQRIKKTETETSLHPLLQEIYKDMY", "experiment": "Western blot of LNCaP cell lysates, PPAR beta", "protocol": "as §1, §2"}}}
{"smiles": "CCOC(=O)CCC(C(=O)C=Cc1ccc(O)c(OC)c1)C(=O)C=Cc1ccc(O)c(OC)c1", "note": "(stereo not shown) [JC15, 7-(4-hydroxy-3-methoxyphenyl)-4-[3-(4-hydroxy-3-methoxyphenyl)acryloyl]-5-oxo-hept-6-enoic acid ethyl ester]", "values": [{"measurement": "cellular concentration of ER beta", "setting": "ER beta", "value": "did not substantially affect"}, {"measurement": "cellular concentration of progesterone receptor", "setting": "progesterone receptor", "value": "decreased"}, {"measurement": "cellular concentration of PPAR gamma", "setting": "PPAR gamma", "value": "did not substantially affect"}, {"measurement": "cellular concentration of PPAR beta", "setting": "PPAR beta", "value": "did not substantially affect"}]}
